{
  "source": "patent US20200032249A1",
  "about": "“LABELING, ISOLATION, & ANALYSIS OF RNA FROM RARE CELL POPULATIONS” (priority 2017, published 2020)",
  "test_system": "MDA231 cells",
  "test": "stress granule formation by G3BP immunostaining",
  "type": "cell-based",
  "conditions": "for treatment time after which cells started to form stress granules: human",
  "protocol": "FIG. 2a-b. Flura-tagging has minimal cytotoxicity. FIG. 2a—Effect of Flura-tagging on stress granule formation. MDA231 cells were treated with 5-FC for the indicated times, and the formation of stress granules was detected by G3BP immunostaining. Control cells were either treated with water or sodium arsenite (Arsenite) for one hour. Arrows indicate stress granules (n=3). Scale bar=20 μM. FIG. 2b—Effect of Flura-tagging on transcription. RNA expression in control cells was compared to CD/UPRT-expressing cells treated with the indicated concentrations of 5-FC for 4 h or 12 h. Each dot represents a gene, with the outer/lighter gray dots indicating genes showing more than 2-fold differential expression, as determined by DESeq2 (n=2). The dotted line represents the four-fold cutoff mark.\n5-FU is extensively used as a chemotherapeutic agent for the treatment of solid tumors, based on its ability to induce cancer cell death by inhibiting thymidylate synthase and by causing DNA and RNA damage (12-14). It was therefore crucial to test whether our 5-FU-tagging method, which is based on low concentrations of 5-FC and short incubation time periods, has significant cytotoxic effects under our experimental conditions. CD/UPRT-expressing cells were treated with 5-FC at concentrations of up to 250 μM for up to 12 h (“Flura-tagged” cells), and the effects of this treatment on RNA damage response and transcriptional regulation were investigated.\nA key feature of the RNA damage response is the formation of stress granules (15). Ras GTPase-activating protein-binding protein 1 (G3BP), a key component of stress granules, forms distinct foci during stress granule formation (12). We determined the dose- and time-dependent effect of 5-FC treatment on stress granule formation by immunostaining of the cells with anti-G3BP antibody. […] The 5-FC-treated cells started to form stress granules only after 24 h of treatment with 1 mM 5-FC, a concentration four times higher than the maximal concentration of 5-FC used for Flura-tagging, or after 48 h of 5-FC treatment at lower concentrations (FIG. 2a).\nHuman embryonic kidney transformed with […] (293T) and human breast cancer MDA-MB-231 (MDA231) cells were cultured in DMEM High Glucose medium (Wheaton) supplemented with 10% Fetal Bovine Serum (Clontech, Catalog number 631106) supplemented with 2 mM L-Glutamine. All cell lines have been routinely tested for mycoplasma contamination. For the induction of CD or CD and UPRT, cells were treated with 1 μg/ml doxycycline for 24 h. For Fluorouracil tagging, cells were treated with 250 μM of 5-FC or 5-FU unless indicated. Where indicated, 125 μM thymine was added together with 5-FC. […]",
  "data": [
    {"smiles": "Nc1nc(=O)[nH]cc1F", "note": "[5-FC, 5-fluorocytosine]", "values": [
      {"measurement": "stress granules after 12 h", "result": "did not contain stress granules"},
      {"measurement": "treatment time after which cells started to form stress granules", "result": 48, "unit": "h"},
      {"measurement": "treatment time after which cells started to form stress granules", "setting": "1 mM", "result": 24, "unit": "h"}
    ]}
  ]
}
